Results as given in patent publication US20260015358A1, “BICYCLIC DERIVATIVES, COMPOSITIONS AND USES THEREOF” (Danatlas Pharmaceuticals Co., Ltd., priority 2023, published 2026).

What was measured:
[1] = target: T1, WRN [UniPro: Q14191 (WRN_HUMAN), N500-C946] (Homo sapiens (Human), UniProt Q14191); test: WRN ATPase assay (ADP-Glo); type: biochemical; conditions: WRN enzymatic activity assay
[2] = target: T1, WRN [UniPro: Q14191 (WRN_HUMAN), N500-C946]; test: WRN unwinding assay (FORKF DNA, fluorescence); type: biochemical; conditions: Table 14

T1 sequence (Q14191 500-946): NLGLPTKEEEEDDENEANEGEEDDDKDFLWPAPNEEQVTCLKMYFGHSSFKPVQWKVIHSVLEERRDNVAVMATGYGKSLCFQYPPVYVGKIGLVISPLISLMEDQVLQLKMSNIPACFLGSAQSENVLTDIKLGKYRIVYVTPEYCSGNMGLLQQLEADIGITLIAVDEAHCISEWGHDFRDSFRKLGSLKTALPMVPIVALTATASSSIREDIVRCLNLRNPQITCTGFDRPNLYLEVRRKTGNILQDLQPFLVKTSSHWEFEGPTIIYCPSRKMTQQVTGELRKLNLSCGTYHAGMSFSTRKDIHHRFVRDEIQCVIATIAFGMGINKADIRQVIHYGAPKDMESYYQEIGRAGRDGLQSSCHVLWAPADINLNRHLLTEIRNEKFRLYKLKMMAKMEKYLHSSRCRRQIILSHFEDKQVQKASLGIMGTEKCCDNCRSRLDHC

Row | IC50 [1] [nM] | IC50 [2] [nM] | SMILES
1 | 100 to 1000 | < 100 | CCc1c(N2CCN(C(=O)CNC(=O)c3cnc4c(ccn4C)c3O)CC2)c(=O)n2nc(C3=CCOCC3)nc2n1CC(=O)Nc1ccc(C(F)(F)F)cc1Cl [Example 120, N-(2-(4-(4-(2-((2-Chloro-4-(trifluoromethyl)phenyl)amino)-2-oxoethyl)-2-(3,6-dihydro-2H-pyran-4-yl)-5-ethyl-7-oxo-4,7-dihydro-[1,2,4]triazolo[1,5-a]pyrimidin-6-yl)piperazin-1-yl)-2-oxoethyl)-4-hydroxy-1-methyl-1H-pyrrolo[2,3-b]pyridine-5-carboxamide]
2 | < 100 | < 100 | CCc1c(N2CCN(C(=O)CNC(=O)c3c[nH]cn3)CC2)c(=O)n2nc(C3=CCOCC3)nc2n1CC(=O)Nc1ccc(C(F)(F)F)cc1Cl [Example 121, N-(2-(4-(4-(2-((2-Chloro-4-(trifluoromethyl)phenyl)amino)-2-oxoethyl)-2-(3,6-dihydro-2H-pyran-4-yl)-5-ethyl-7-oxo-4,7-dihydro-[1,2,4]triazolo[1,5-a]pyrimidin-6-yl)piperazin-1-yl)-2-oxoethyl)-1H-imidazole-4-carboxamide]
3 | < 100 | < 100 | CCc1c(N2CCN(C(=O)CNC(=O)c3cc(C)ns3)CC2)c(=O)n2nc(C3=CCOCC3)nc2n1CC(=O)Nc1ccc(C(F)(F)F)cc1Cl [Example 122, N-(2-(4-(4-(2-((2-Chloro-4-(trifluoromethyl)phenyl)amino)-2-oxoethyl)-2-(3,6-dihydro-2H-pyran-4-yl)-5-ethyl-7-oxo-4,7-dihydro-[1,2,4]triazolo[1,5-a]pyrimidin-6-yl)piperazin-1-yl)-2-oxoethyl)-3-methylisothiazole-5-carboxamide]
4 | < 100 | < 100 | CCc1c(N2CCN(C(=O)CNC(=O)c3ncco3)CC2)c(=O)n2nc(C3=CCOCC3)nc2n1CC(=O)Nc1ccc(C(F)(F)F)cc1Cl [Example 123, N-(2-(4-(4-(2-((2-Chloro-4-(trifluoromethyl)phenyl)amino)-2-oxoethyl)-2-(3,6-dihydro-2H-pyran-4-yl)-5-ethyl-7-oxo-4,7-dihydro-[1,2,4]triazolo[1,5-a]pyrimidin-6-yl)piperazin-1-yl)-2-oxoethyl)oxazole-2-carboxamide]
5 | < 100 | < 100 | CCc1c(N2CCN(C(=O)CNC(=O)c3c(F)cccc3F)CC2)c(=O)n2nc(C3=CCOCC3)nc2n1CC(=O)Nc1ccc(C(F)(F)F)cc1Cl [Example 124, N-(2-(4-(4-(2-((2-Chloro-4-(trifluoromethyl)phenyl)amino)-2-oxoethyl)-2-(3,6-dihydro-2H-pyran-4-yl)-5-ethyl-7-oxo-4,7-dihydro-[1,2,4]triazolo[1,5-a]pyrimidin-6-yl)piperazin-1-yl)-2-oxoethyl)-2,6-difluorobenzamide]
6 | 100 to 1000 | < 100 | CCc1c(N2CCN(C(=O)CNC(=O)c3c(Cl)cccc3Cl)CC2)c(=O)n2nc(C3=CCOCC3)nc2n1CC(=O)Nc1ccc(C(F)(F)F)cc1Cl [Example 125, 2,6-Dichloro-N-(2-(4-(4-(2-((2-chloro-4-(trifluoromethyl)phenyl)amino)-2-oxoethyl)-2-(3,6-dihydro-2H-pyran-4-yl)-5-ethyl-7-oxo-4,7-dihydro-[1,2,4]triazolo[1,5-a]pyrimidin-6-yl)piperazin-1-yl)-2-oxoethyl)benzamide]
7 | < 100 | < 100 | CCc1c(N2CCN(C(=O)CNC(=O)c3cc(Cl)ccc3Cl)CC2)c(=O)n2nc(C3=CCOCC3)nc2n1CC(=O)Nc1ccc(C(F)(F)F)cc1Cl [Example 126, 2,5-Dichloro-N-(2-(4-(4-(2-((2-chloro-4-(trifluoromethyl)phenyl)amino)-2-oxoethyl)-2-(3,6-dihydro-2H-pyran-4-yl)-5-ethyl-7-oxo-4,7-dihydro-[1,2,4]triazolo[1,5-a]pyrimidin-6-yl)piperazin-1-yl)-2-oxoethyl)benzamide]
8 | 100 to 1000 | < 100 | CCc1c(N2CCN(C(=O)CNC(=O)c3ncc(C)s3)CC2)c(=O)n2nc(C3=CCOCC3)nc2n1CC(=O)Nc1ccc(C(F)(F)F)cc1Cl [Example 128, N-(2-(4-(4-(2-((2-Chloro-4-(trifluoromethyl)phenyl)amino)-2-oxoethyl)-2-(3,6-dihydro-2H-pyran-4-yl)-5-ethyl-7-oxo-4,7-dihydro-[1,2,4]triazolo[1,5-a]pyrimidin-6-yl)piperazin-1-yl)-2-oxoethyl)-5-methylthiazole-2-carboxamide]
9 | < 100 | < 100 | CCc1c(N2CCN(C(=O)CNC(=O)c3cscn3)CC2)c(=O)n2nc(C3=CCOCC3)nc2n1CC(=O)Nc1ccc(C(F)(F)F)cc1Cl [Example 129, N-(2-(4-(4-(2-((2-Chloro-4-(trifluoromethyl)phenyl)amino)-2-oxoethyl)-2-(3,6-dihydro-2H-pyran-4-yl)-5-ethyl-7-oxo-4,7-dihydro-[1,2,4]triazolo[1,5-a]pyrimidin-6-yl)piperazin-1-yl)-2-oxoethyl)thiazole-4-carboxamide]
10 | < 100 | < 100 | CCc1c(N2CCN(C(=O)CNC(=O)c3cc(C)no3)CC2)c(=O)n2nc(C3=CCOCC3)nc2n1CC(=O)Nc1ccc(C(F)(F)F)cc1Cl [Example 130, N-(2-(4-(4-(2-((2-Chloro-4-(trifluoromethyl)phenyl)amino)-2-oxoethyl)-2-(3,6-dihydro-2H-pyran-4-yl)-5-ethyl-7-oxo-4,7-dihydro-[1,2,4]triazolo[1,5-a]pyrimidin-6-yl)piperazin-1-yl)-2-oxoethyl)-3-methylisoxazole-5-carboxamide]
11 | 100 to 1000 | < 100 | CCc1c(N2CCN(C(=O)CNC(=O)c3cnc(C)s3)CC2)c(=O)n2nc(C3=CCOCC3)nc2n1CC(=O)Nc1ccc(C(F)(F)F)cc1Cl [Example 131, N-(2-(4-(4-(2-((2-Chloro-4-(trifluoromethyl)phenyl)amino)-2-oxoethyl)-2-(3,6-dihydro-2H-pyran-4-yl)-5-ethyl-7-oxo-4,7-dihydro-[1,2,4]triazolo[1,5-a]pyrimidin-6-yl)piperazin-1-yl)-2-oxoethyl)-2-methylthiazole-5-carboxamide]
12 | < 100 | < 100 | CCc1c(N2CCN(C(=O)CNC(=O)c3ccc(F)c(F)c3)CC2)c(=O)n2nc(C3=CCOCC3)nc2n1CC(=O)Nc1ccc(C(F)(F)F)cc1Cl [Example 132, N-(2-(4-(4-(2-((2-Chloro-4-(trifluoromethyl)phenyl)amino)-2-oxoethyl)-2-(3,6-dihydro-2H-pyran-4-yl)-5-ethyl-7-oxo-4,7-dihydro-[1,2,4]triazolo[1,5-a]pyrimidin-6-yl)piperazin-1-yl)-2-oxoethyl)-3,4-difluorobenzamide]
13 | < 100 | < 100 | CCc1c(N2CCN(C(=O)CNC(=O)c3ncccc3F)CC2)c(=O)n2nc(C3=CCOCC3)nc2n1CC(=O)Nc1ccc(C(F)(F)F)cc1Cl [Example 133, N-(2-(4-(4-(2-((2-Chloro-4-(trifluoromethyl)phenyl)amino)-2-oxoethyl)-2-(3,6-dihydro-2H-pyran-4-yl)-5-ethyl-7-oxo-4,7-dihydro-[1,2,4]triazolo[1,5-a]pyrimidin-6-yl)piperazin-1-yl)-2-oxoethyl)-3-fluoropicolinamide]
14 | < 100 | < 100 | CCc1c(N2CCN(C(=O)CNC)CC2)c(=O)n2nc(C3=CCOCC3)nc2n1CC(=O)Nc1ccc(C(F)(F)F)cc1Cl [Example 134, N-(2-Chloro-4-(trifluoromethyl)phenyl)-2-(2-(3,6-dihydro-2H-pyran-4-yl)-5-ethyl-6-(4-(methylglycyl)piperazin-1-yl)-7-oxo-[1,2,4]triazolo[1,5-a]pyrimidin-4(7H)-yl)acetamide]
15 | < 100 | 100 to 1000 | CCc1c(N2CCN(C(=O)C(C)NC(=O)c3ccccc3)CC2)c(=O)n2nc(C3=CCOCC3)nc2n1CC(=O)Nc1ccc(C(F)(F)F)cc1Cl (stereo not drawn) [Example 136, N-(1-(4-(4-(2-((2-Chloro-4-(trifluoromethyl)phenyl)amino)-2-oxoethyl)-2-(3,6-dihydro-2H-pyran-4-yl)-5-ethyl-7-oxo-4,7-dihydro-[1,2,4]triazolo[1,5-a]pyrimidin-6-yl)piperazin-1-yl)-1-oxopropan-2-yl)benzamide]
16 | < 100 | < 100 | [2H]C([2H])(NC(=O)c1ccccc1F)C(=O)N1CCN(c2c(CC)n(CC(=O)Nc3ccc(C(F)(F)F)cc3Cl)c3nc(N4CCOCC4)nn3c2=O)CC1 [Example 138, N-(2-(4-(4-(2-((2-Chloro-4-(trifluoromethyl)phenyl)amino)-2-oxoethyl)-5-ethyl-2-morpholino-7-oxo-4,7-dihydro-[1,2,4]triazolo[1,5-a]pyrimidin-6-yl)piperazin-1-yl)-2-oxoethyl-1,1-d2)-2-fluorobenzamide]
17 | > 1000 | > 1000 | CCc1c(N2CCC(NC(=O)CNC(=O)c3ccccc3)CC2)c(=O)n2nc(C3=CCOCC3)nc2n1CC(=O)Nc1ccc(C(F)(F)F)cc1Cl [Example 141, N-(2-((1-(4-(2-((2-Chloro-4-(trifluoromethyl)phenyl)amino)-2-oxoethyl)-2-(3,6-dihydro-2H-pyran-4-yl)-5-ethyl-7-oxo-4,7-dihydro-[1,2,4]triazolo[1,5-a]pyrimidin-6-yl)piperidin-4-yl)amino)-2-oxoethyl)benzamide]
18 | 100 to 1000 | > 1000 | CCc1c(N2CCN(C(=O)CNC(=O)c3ccccc3)CC2)c(=O)n2nc(C3=CCOCC3)nc2n1CC(=O)N(C)c1ccc(C(F)(F)F)cc1Cl [Example 143, N-(2-(4-(4-(2-((2-Chloro-4-(trifluoromethyl)phenyl)(methyl)amino)-2-oxoethyl)-2-(3,6-dihydro-2H-pyran-4-yl)-5-ethyl-7-oxo-4,7-dihydro-[1,2,4]triazolo[1,5-a]pyrimidin-6-yl)piperazin-1-yl)-2-oxoethyl)benzamide]
